Common to all, as to format: cell-based
For test [1], the target named is T1, Neuropeptide Y receptor type 1 (Homo sapiens, UniProt P25929).
T1 sequence (P25929 whole entry): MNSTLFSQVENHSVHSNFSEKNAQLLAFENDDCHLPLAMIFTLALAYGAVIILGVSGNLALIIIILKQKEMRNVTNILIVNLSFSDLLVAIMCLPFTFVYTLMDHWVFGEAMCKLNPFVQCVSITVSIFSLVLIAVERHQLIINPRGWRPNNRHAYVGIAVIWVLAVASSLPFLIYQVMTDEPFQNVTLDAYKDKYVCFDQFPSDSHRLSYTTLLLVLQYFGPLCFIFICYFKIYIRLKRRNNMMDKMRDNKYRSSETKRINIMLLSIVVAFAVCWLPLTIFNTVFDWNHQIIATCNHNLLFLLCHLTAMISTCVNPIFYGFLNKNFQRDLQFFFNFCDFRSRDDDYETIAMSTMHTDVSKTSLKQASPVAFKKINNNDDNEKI
The experiment in a line: Displacement of [125I]NPY from human neuropeptide Y1 receptor expressed in human MCF7 cells after 40 mins. Particulars: for pKi: read-out: Ki; call rule not given here. On the technique in general: Loss of bound radioactivity is the signal in a displacement assay; it reports binding, not function.

The target in test [2] is T2, Neuropeptide Y receptor type 2 (Homo sapiens, UniProt P49146).
T2 sequence (P49146 whole entry): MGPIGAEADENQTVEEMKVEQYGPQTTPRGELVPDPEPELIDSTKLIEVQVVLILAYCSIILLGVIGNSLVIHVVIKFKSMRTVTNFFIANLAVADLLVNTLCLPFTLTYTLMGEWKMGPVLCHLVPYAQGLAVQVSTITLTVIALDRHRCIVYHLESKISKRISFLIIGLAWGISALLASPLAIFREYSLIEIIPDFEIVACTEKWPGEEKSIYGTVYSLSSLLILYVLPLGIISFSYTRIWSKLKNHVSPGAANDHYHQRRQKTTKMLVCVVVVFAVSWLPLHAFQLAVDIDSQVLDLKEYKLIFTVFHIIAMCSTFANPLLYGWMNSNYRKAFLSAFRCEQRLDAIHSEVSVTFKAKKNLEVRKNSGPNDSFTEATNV
The experiment in a line: Displacement of [125I]PYY from human neuropeptide Y2 receptor expressed in human SK-N-BE2 cells after 40 mins.

Test [3] deals with Neuropeptide Y receptor type 4 (Homo sapiens, UniProt P50391). The experiment in a line: Displacement of [125I]Pancreatic polypeptide from human neuropeptide Y4 receptor in human HEK293 cells after 40 mins.
Chain of Neuropeptide Y receptor type 4 (P50391 whole entry): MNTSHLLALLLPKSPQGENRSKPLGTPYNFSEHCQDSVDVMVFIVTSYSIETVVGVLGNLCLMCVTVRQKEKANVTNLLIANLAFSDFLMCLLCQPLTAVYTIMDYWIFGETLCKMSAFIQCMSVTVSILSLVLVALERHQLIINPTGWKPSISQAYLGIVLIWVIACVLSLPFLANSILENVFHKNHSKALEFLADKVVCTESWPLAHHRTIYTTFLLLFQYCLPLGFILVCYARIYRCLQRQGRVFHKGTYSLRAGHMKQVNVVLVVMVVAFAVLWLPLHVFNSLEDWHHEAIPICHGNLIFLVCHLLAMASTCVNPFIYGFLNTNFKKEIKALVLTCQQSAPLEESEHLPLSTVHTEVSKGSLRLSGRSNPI

pKi: −log10 of the molar value. Several values for one entry are separate records, joined by “and”; a condition that tells them apart may be missing. Equal values may be shown once. Where a SMILES comes first, the peptide text is derived from it. The star is where a group is joined. DOTA = O=C(O)CN1CCN(CC(=O)O)CCN(CC(=O)*)CCN(CC(=O)O)CC1

Regarding H-INPIYRLRY-OH, the pKi (as a rule, the negative decadic logarithm of the Ki, by convention in mol/L) in test [1] is 8.30 and 7.41; in test [2] (read-out: Ki), 7.95; in test [3] (read-out: Ki), 8.24.
With `CC(C)C[C@H](NC(=O)[C@H](CCCNC(=N)N)NC(=O)[C@H](Cc1ccc(O)cc1)NC(=O)[C@H](CCCCNC(=O)CN1CCN(CC(=O)O)CCN(CC(=O)O)CCN(CC(=O)O)CC1)NC(=O)[C@@H]1CCCN1C(=O)[C@@H](N)CC(N)=O)C(=O)N[C@@H](CCCNC(=N)N)C(=O)N[C@@H](Cc1ccc(O)cc1)C(=O)O` (H-NPK(DOTA)YRLRY-OH), in test [1] (mcf7), the Ki entry is “Not Active”.
Consider `CC[C@H](C)[C@H](N)C(=O)N[C@@H](CC(N)=O)C(=O)N1CCC[C@H]1C(=O)N[C@@H](CCCCNC(=O)CN1CCN(CC(=O)O)CCN(CC(=O)O)CCN(CC(=O)O)CC1)C(=O)N[C@@H](Cc1ccc(O)cc1)C(=O)N[C@@H](CCCNC(=N)N)C(=O)N[C@@H](CC(C)C)C(=O)N[C@@H](CCCNC(=N)N)C(=O)N[C@@H](Cc1ccc(O)cc1)C(N)=O`, for which the Ki entry in test [2] and in test [3] (hek293) was “Not Active” in each case.
Regarding H-IKPIYRLRY-NH2, the pKi in test [1] is 6.89.

These data come from ChEMBL document CHEMBL1159069, “[Lys(DOTA)4]BVD15, a novel and potent neuropeptide Y analog designed for Y1 receptor-targeted breast tumor imaging” (Bioorg Med Chem Lett, 2010).
